Results taken from publication PMC12458545, “Repurposing a Detrimental Antibody Epitope as Targeted Therapeutics for Sepsis and Rheumatoid Arthritis” (Research Square, 2025).
Entries after “also recorded” stand apart in the source; their conditions may differ.

Columns and labels:
human PBMCs [1] = test: HMGB1-induced cytokine/chemokine secretion, Cytokine Antibody Arrays; assay type: cell-based; conditions: P2–1 5 or 10 μg/ml, HMGB1 0.5 or 2.0 μg/ml, 16 h
Method: (§1) Human blood was purchased from the New York Blood Center (Long Island City, NY, USA), and PBMCs were isolated by density gradient centrifugation through Ficoll (Ficoll-Paque PLUS) as previously described,[30]. PBMCs were cultured in RPMI-1640 supplemented with 10% human serum, 2 mM L-glutamine, 100 U/mL penicillin, and 100 μg/mL streptomycin (all from Invitrogen). For experiments, PBMCs were stimulated with recombinant human HMGB1 (0.5 or 2.0 μg/ml) for 16 hours, either alone or in combination with P2–1 at 5.0 or 10.0 μg/ml. Cell-free supernatants were collected for analysis of cytokines/chemokines levels by Cytokine Antibody Arrays, or pCTS-L levels by Western blotting analysis as described.
(§2) Levels of cytokines and chemokines in mouse serum and joint tissue lysates, or human PBMC culture supernatants were determined using murine or human Cytokine Antibody Arrays (e.g., Cat. No. M0308003 or Cat. No. AAH-CYT-3–4, RayBiotech Inc., Norcross, GA, USA) as previously described,[30],[86],[87]. Serum samples were collected from mice at 24 h post-CLP. The soft tissue of the hindpaw and ankle joints was carefully collected using a previously described protocol. Briefly, 0.5 g of fresh soft tissue was cut into 3 mm pieces, and mixed with 400 μL of a hypertonic solution (500 mL PBS with 4.5 g NaCl and 2× protease inhibitor cocktail) in a 10 mL syringe. Mechanical extrusion, involving 30 rapid back-and-forth movements of the plunger, was then performed. The expelled extracellular fluid was collected, immediately aliquoted, and stored at −20°C until analysis. Cell-conditioned medium was collected from PBMC cultures after 16 h of stimulation. Arrays were performed according to the manufacturer’s protocol, followed by chemiluminescent detection and densitometric quantification as previously described,[30].

[2] = tested on: collagen antibody-induced arthritis (CAIA); test: CAIA arthritis severity clinical score; assay type: in vivo, Balb/C mice; conditions: P2–1 i.p. daily Day 6 to Day 9; male and female mice; vs. saline vehicle
Method: (§3) The CAIA model was performed in Balb/C mice (8–10 weeks old) as described previously. On Day 0, mice received i.p. injection of 2 mg anti-collagen II mAb cocktail (α-II, Chondrex, Inc., Redmond, WA). On Day 3, mice received i.p. injection of 30 μg LPS (Escherichia coli O111:B4; Sigma-Aldrich) to activate inflammation and synchronize arthritis onset. Mice were randomized, and therapeutic agents (P2–1 peptide or pCTS-L-neutralizing mAb2) were administered i.p. daily from Day 6 to Day 9. Arthritis severity was scored daily using a clinical scoring system [0 – 4 per paw: 0 = normal; 1 = mild redness and swelling in a single joint type (ankle, wrist, or individual digits); 2 = moderate redness and swelling affecting two joint types; 3 = severe redness and swelling involving across all three joint types; 4 = maximal redness and swelling of the entire paw that obscured joint definition].

human PBMCs [3] = test: RNA-seq of HMGB1-stimulated PBMCs; assay type: cell-based; conditions: for other HMGB1-induced gene expression (cytokines, chemokines) (words): P2–1 5.0 or 10.0 μg/ml with HMGB1
Method: as §1
Total RNA was isolated from human PBMCs stimulated with HMGB1 in the absence or presence of P2–1 (5.0 or 10.0 μg/ml) using the RNeasy Mini Kit (Qiagen) according to the manufacturer’s instructions. RNA quantity and quality were assessed using a NanoDrop spectrophotometer and an Agilent Bioanalyzer. cDNA libraries were prepared using the TruSeq RNA Library Prep Kit v2 (Illumina) and sequenced on an Illumina NovaSeq 6000 platform to generate 100 bp paired-end reads. Raw sequencing reads were quality-checked using FastQC, trimmed with Trimmomatic, and aligned to the human reference genome (GRCh38) using HISAT2. Gene counts were quantified using StringTie and DESeq2 was used for differential gene expression analysis. Volcano plots and heatmaps were generated using ggplot2 and pheatmap packages in R, respectively. Genes with an adjusted P-value < 0.05 and a |log2-fold change| > 1 were considered differentially expressed.

[4] = tested on: sepsis-induced systemic cytokines and chemokines; test: serum cytokines/chemokines in CLP sepsis, Cytokine Antibody Arrays; assay type: in vivo, Balb/C mice; conditions: P2–1 0.1 or 1.0 mg/kg i.p. at 2 h and 20 h post-CLP; blood at 24 h
Method: Experimental sepsis was induced in Balb/C mice via cecal ligation and puncture (CLP) as previously described,[30],[37]. […] Briefly, mice were anesthetized intramuscularly with ketamine (75 mg/kg, Henry Schein Animal Health, Dublin, Ohio) and xylazine (10 mg/kg, Sigma-Aldrich) before a midline abdominal incision was made in the lower left abdomen. The cecum was ligated with a 4–0 silk suture at 50% of its length from the distal end, and punctured twice with a 21-gauge needle to induce moderate to severe sepsis. The cecum was returned to the abdominal cavity, and the incision was closed in layers. Approximately 30 min post-CLP, animals received imipenem/cilastatin (0.5 mg/mouse, Primaxin, Merck & Co., Inc.) and 1.0 mL of sterile saline for fluid resuscitation. Animals were randomized to control vehicle and experimental groups, administered P2 or P2–1 intraperitoneally at indicated doses and time points, and monitored for survival rates. To elucidate P2–1’s protective mechanisms, a separate group of Balb/C mice underwent CLP and received P2–1 (1.0 mg/kg) at 2 h and 20 h post-CLP. At 24 h post-CLP, animals were euthanized to collect blood and measure serum cytokines and chemokines using murine Cytokine Antibody Arrays.
as §2

[5] = tested on: CAIA-induced mechanical allodynia; test: CAIA pain sensitivity, Von Frey filaments; assay type: in vivo, Balb/C mice; conditions: P2–1 i.p. daily Day 6 to Day 9; 50% paw withdrawal threshold, up-down method
Method: as §3
Mechanical allodynia was assessed using Von Frey filaments (Stoelting Co., Wood Dale, IL) applied to the plantar surface of the hind paws as previously described,[82]. Mice were habituated in individual transparent enclosures on an elevated wire mesh platform. […] The “up-down” method determined the 50% paw withdrawal threshold, defined as the force required to elicit a withdrawal response in 50% of applications.

[6] = tested on: CAIA-induced joint tissue cytokines and chemokines; test: CAIA joint tissue inflammation, Cytokine Antibody Arrays; assay type: in vivo, Balb/C mice; conditions: P2–1, harvested Day 10; for joint tissue inflammation (array overall): representative arrays, four vehicle- and four P2-1-treated mice
Method: as §3, §2

Substance: 54-TKVH(Nle)KSFLAFQTKT-69 [P2–1, water-soluble derivative of TN peptide P2 with Met to Norleucine and Cys to Ser substitutions]
- HMGB1-induced cytokine/chemokine secretion (words) (human PBMCs [1]): did not affect the secretion of these HMGB1-induced cytokines and chemokines; also recorded: did not broadly inhibit the secretion of these HMGB1-induced cytokines and chemokines
- HMGB1-induced cytokine/chemokine secretion (words) (human PBMCs [1]; listed as P2-1): does not broadly inhibit
- arthritis severity [2]: dose-dependently and significantly attenuated
- Ctsl mRNA upregulation (fold) (human PBMCs [3]; HMGB1 + P2–1 group, three independent donors, mean ± SEM): 2.4 ± 0.1 fold
- HMGB1-induced Ctsl mRNA upregulation (human PBMCs [3]; P2–1 5.0 or 10.0 μg/ml): moderately but significantly reduced HMGB1-induced Ctsl mRNA upregulation
- other HMGB1-induced gene expression (cytokines, chemokines) (words) (human PBMCs [3]): did not broadly reverse HMGB1-induced transcriptional changes for most genes; also recorded: not significantly affecting the expression of other HMGB1-induced cytokines and chemokines
- other HMGB1-induced gene expression (cytokines, chemokines) (words) (human PBMCs [3]; listed as P2-1): does not induce
- sepsis-induced systemic inflammation [4]: significantly attenuated
- serum BLC/CXCL13 [4]: significantly reduced
- serum G-CSF [4]: significantly reduced
- serum IL-6 [4]: significantly reduced
- serum KC/GRO-α/CXCL1 [4]: significantly reduced
- serum MCP-1/CCL2 [4]: significantly reduced
- serum MIP-1γ/CCL9/10 [4]: significantly reduced
- serum MIP-2/GRO-β/CXCL3 [4]: significantly reduced
- serum sTNFRI [4]: significantly reduced
- pain sensitivity (paw mechanical withdrawal threshold) [5]: significantly reduced CAIA-induced pain sensitivity by partially restoring paw mechanical withdrawal thresholds
- joint tissue MIP-1γ/CCL9/10 [6]: reduced levels; also recorded: significant reduction
- joint tissue VCAM-1 [6]: reduced levels; also recorded: significant reduction
- joint tissue sTNFRI [6]: reduced levels; also recorded: significant reduction
- joint tissue sTNFRII [6]: reduced levels; also recorded: significant reduction
- joint tissue inflammation (array overall) [6]: significantly reduced CAIA-induced joint tissue inflammation
- joint tissue inflammation (array overall) ([6]; listed as P2-1): reduction in various inflammatory cytokines and chemokines
